This test concerns adhesion of Ramos cells to VCAM-1. The experiment in a line: Adhesion of Ramos cells to immobilized VCAM-1 (domains 1-3). It is filed as cell-based. As to conditions: Homo sapiens. From the text: In Vitro Assay: Adhesion of Ramos Cells to Immobilized VCAM-1 (Domains 1-3) Preparation of VCAM-1 (Extracellular Domains 1-3)
Complementary DNA (cDNA) encoding 7-domain form of VCAM-1 (GenBank accession #M60335) was obtained using Rapid-Screen™ cDNA library panels (OriGene Technologies, Inc) at Takara Gene Analysis Center (Shiga, Japan). The primers used were 5′-CCAAGGCAGAGTACGCAAAC-3′ (sense) and 5′-TGGCAGGTATTATTAAGGAG-3′ (antisense). PCR amplification of the 3-domain VCAM-1 cDNA was perform using Pfu DNA polymerase (Stratagene) with the following sets of primers: (U-VCAMd1-3) 5′-CCATATGGTACCTGATCAATTTAAAATCGAGACCACCCCAGAA-3′; (L-VCAMdl-3) 5-CCATATAGCAATCCTAGGTCCAGGGGAGATCTCAACAGTAAA-3′. PCR cycle was 94° C. for 45 sec, 55° C. for 45 sec, 72° C. for 2 min, repeating 15 cycles. After the purification of the PCR product, the fragment was digested with KpnI-AvrII. The digested fragment was ligated into pBluescript IISK(−) (Strategene), which was linearized by digesting with KpnI-XhoI. The ligation was followed by transformation to a Dam/Dcm methylase-free E. coli strain SCS110 (Strategene) to create the donor plasmid […]. To direct VCAM-1 molecule into the insect cell secretory pathway, the VCAM-1 coding sequence was fused to signal peptide sequence of honeybee melittin. The resulting melittin-VCAM fusion was placed in correct orientation to the baculovirus polyhedrin promoter. Baculovirus transfer vector containing first 3-domain form VCAM-1 (pH10) was constructed by ligation of 0.9 kb fragment from AvrII/Klenow/BclI digests of pH7 into SalI/Klenow/BamHI digests of pMelBacB (Invitrogen). Recombinant baculovirus was generated by using Bac-N-Blue™ Transfection kit (Invitrogen) according to the manufacture's instruction. The recombinant virus was amplified by infection to High-Five™ insect cells for 5-6 days, and virus titer was determined by plaque assay.
High-Five™ insect cells were pelleted in a 225 ml conical tube by centrifugation at 1000 rpm for 5 min. After discarding the supernatant, the pellet was resuspended in 1.5×10^9 pfu (MOI=5) of high-titer virus solution, followed by incubation for 1.5 hours at room temperature. The cells were pelleted again and washed once in fresh Express Five™ serum free medium. The cells were pelleted again and finally, resuspended in 200 ml of fresh Express Five TM medium, transferred to a 1,000 ml shaker flask, and incubated in a shaker at 27° C., 130 rpm, for 48 hours before the culture supernatant was collected. The purification of 3-domain form of VCAM-1 from the culture supernatant was performed by one-step anion exchange chromatography. Protein concentration was determined by using Coomassie protein assay reagent (Pierce) according to the manufacture's instruction.
Preparation of VCAM-1 Coated Microtiter Plates
Recombinant human VCAM-1 (extracellular domains 1-3) was dissolved at 1.0 μg/ml in PBS. Each well of the microtiter plates (Nalge Nunc International, Fluoronunc Cert, 437958) was coated with 100 μl of substrate or for background control with buffer alone for 15 hours at 4 C. After discarding the substrate solution, the wells were blocked using 150 μl per well of block solution (Kirkegaard Perry Laboratories, 50-61-01) for 90 minutes. The plate was washed with wash buffer containing 24 mM Tris-HCl (pH 7.4), 137 mM NaCl, […] and 2 mM MnCl2 just before addition of the assay.
In Vitro Assay using Ramos Cells
Preparation of Fluorescence Labeled Ramos Cells:
Ramos cells (American Type Culture Collection, Clone CRL-1596) were cultured in RPMI 1640 medium (Nikken Bio Medical Laboratory, CM1101) supplemented with 10% fetal bovine serum (Hyclone, A-1119-L), 100 U/ml penicilin (Gibco BRL, 15140-122) and 100 μg/ml streptomycin (Gibco BRL, 15140-122) in a humidified incubator at 37° C. with 5% CO2. […]

The text below walks through data of patent publication US20050054582A1, “Para-amino benzoic acids as integrin antagonists” (priority 2001, published 2005).

Where two headings read alike, the source gives them in different places.

With `Cc1ccccc1NC(=O)Nc1ccc(CC(=O)N(CCCN2CCCC2)CC(=O)Nc2ccc(C(=O)O)cc2)cc1` [Example 58, 4-({N-{[4-({[(2-methylphenyl)amino]carbonyl}amino)phenyl]acetyl}-N-[3-(1-pyrrolidinyl)propyl]glycyl}amino)benzoic acid], the IC50 (Ramos) is less than 0.5 µM.

In turn, `Cc1ccccc1NC(=O)Nc1ccc(CC(=O)N(CC(=O)Nc2ccc(C(=O)O)cc2)Cc2ccccn2)cc1` [Example 70, 4-{[N-{[4-({[(2-methylphenyl)amino]carbonyl}amino)phenyl]acetyl}-N-(2-pyridinylmethyl)glycyl]amino}benzoic acid] had an IC50 (Ramos) of less than 0.5 µM.

`Cc1ccccc1NC(=O)Nc1ccc(CC(=O)N(CC(=O)Nc2ccc(C(=O)O)cc2)CC(C)(C)CN)cc1` [Example 63, 4-[(N-(3-amino-2,2-dimethylpropyl)-N-{[4-({[(2-methylphenyl)amino]-carbonyl}amino)phenyl]acetyl}glycyl)amino]benzoic acid] yielded a half-inhibitory concentration (IC50) (Ramos) of less than 0.5 µM.

`Cc1ccccc1NC(=O)Nc1ccc(CC(=O)N(CCCN2CCCC2=O)CC(=O)Nc2ccc(C(=O)O)cc2)cc1` [Example 66, 4-({N-{[4-({[(2-methylphenyl)amino]carbonyl}amino)phenyl]acetyl}-N-[3-(2-oxo-1-pyrrolidinyl)propyl]glycyl}amino)benzoic acid] yielded an IC50 (Ramos) of less than 0.5 µM.

`COc1cccc(CCN(CC(=O)Nc2ccc(C(=O)O)cc2)C(=O)Cc2ccc(NC(=O)Nc3ccccc3C)cc2)c1` [Example 85, 4-[(N-[2-(3-methoxyphenyl)ethyl]-N-{[4-({[(2-methylphenyl)amino]-carbonyl}amino)phenyl]acetyl}glycyl)amino]benzoic acid] gave an IC50 (Ramos) of less than 0.5 µM.

`Cc1ccccc1NC(=O)Nc1ccc(CC(=O)N[C@@H](CCCN)C(=O)Nc2ccc(C(=O)O)cc2)cc1` [Example 41, 4-[(N^2-{[4-({[(2-methylphenyl)amino]carbonyl}amino)phenyl]acetyl}-L-ornithyl)amino]benzoic acid]: the IC50 (Ramos) is less than 0.5 µM.

Compound `O=C(CN(CCCN1CCCC1)C(=O)Cc1ccc2nc(Nc3ccccc3)oc2c1)Nc1ccc(C(=O)O)cc1` [Example 84] displayed a 50% inhibitory concentration (IC50) (Ramos) of 0.5 to 2 µM.

The compound `Cc1ccccc1NC(=O)Nc1ccc(CC(=O)N[C@@H](Cc2ccc(Br)cc2)C(=O)Nc2ccc(C(=O)O)cc2)cc1` [Example 90, 4-[(4-bromo-N-{[4-({[(2-methylphenyl)amino]carbonyl}amino)phenyl]-acetyl}-L-phenylalanyl)amino]benzoic acid] showed an IC50 (Ramos) of less than 0.5 µM.

Consider `Cc1ccccc1NC(=O)Nc1ccc(CC(=O)N(CC(=O)Nc2ccc(C(=O)O)cc2)CC2CCCO2)cc1` (centres unmarked) [Example 61, 4-{[N-{[4-({[(2-methylphenyl)amino]carbonyl}amino)phenyl]acetyl}-N-(tetrahydro-2-furanylmethyl)glycyl]amino}benzoic acid], for which, under “Ramos”, the IC50 was less than 0.5 µM.

Compound `Cc1ccccc1NC(=O)Nc1ccc(CC(=O)N[C@@H](Cc2c[nH]c3ccccc23)C(=O)Nc2ccc(C(=O)O)cc2)cc1` [Example 43, 4-[(N-{[4-({[(2-methylphenyl)amino]carbonyl}amino)phenyl]acetyl}-L-tryptophyl)amino]benzoic acid] showed an IC50 (Ramos) of less than 0.5 µM.

`Cc1ccccc1NC(=O)Nc1ccc(CC(=O)N(CCCN2CCOCC2)CC(=O)Nc2ccc(C(=O)O)cc2)cc1` [Example 68, 4-({N-{[4-({[(2-methylphenyl)amino]carbonyl}amino)phenyl]acetyl}-N-[3-(4-morpholinyl)propyl]glycyl}amino)benzoic acid] came in with an IC50 (Ramos) of less than 0.5 µM.

For the setting “Ramos”, `Cc1ccccc1NC(=O)Nc1ccc(CC(=O)N(CC(=O)Nc2ccc(C(=O)O)cc2)CC2CCNCC2)cc1` [Example 62, 4-{[N-{[4-({[(2-methylphenyl)amino]carbonyl}amino)phenyl]acetyl}-N-(4-piperidinylmethyl)glycyl]amino}benzoic acid] yielded an IC50 of less than 0.5 µM.

Turning to `Cc1ccccc1NC(=O)Nc1ccc(CC(=O)N(CCCN2CCN(c3ccccc3)CC2)CC(=O)Nc2ccc(C(=O)O)cc2)cc1` [Example 60, 4-({N-{[4-({[(2-methylphenyl)amino]carbonyl}amino)phenyl]acetyl}-N-[3-(4-phenyl-1-piperazinyl)propyl]glycyl}amino)benzoic acid], the IC50 (Ramos) is less than 0.5 µM.

`Cc1ccccc1NC(=O)Nc1ccc(CC(=O)N[C@@H](Cc2ccccc2)C(=O)Nc2ccc(C(=O)O)cc2)cc1` [Example 88, 4-[(N-{[4-({[(2-methylphenyl)amino]carbonyl}amino)phenyl]acetyl}-L-phenylalanyl)amino]benzoic acid] gave an IC50 (Ramos) of less than 0.5 µM.

In the case of `O=C(Cc1ccc2nc(Nc3ccccc3)oc2c1)N[C@@H](Cc1ccc(Br)cc1)C(=O)Nc1ccc(C(=O)O)cc1` [Example 91], for the setting “Ramos”, the IC50 was 0.5 to 2 µM.

Regarding `Cc1ccccc1NC(=O)Nc1ccc(CC(=O)N[C@@H](Cc2cccnc2)C(=O)Nc2ccc(C(=O)O)cc2)cc1` [Example 45, 4-{[N-{[4-({[(2-methylphenyl)amino]carbonyl}amino)phenyl]acetyl}-3-(3-pyridinyl)-L-alanyl]amino}benzoic acid], where the note is “Ramos”, the IC50 is less than 0.5 µM.

Where the note is “Ramos”, `Cc1ccccc1NC(=O)Nc1ccc(CC(=O)N(CCc2ccccn2)CC(=O)Nc2ccc(C(=O)O)cc2)cc1` [Example 73, 4-({N-{[4-({[(2-methylphenyl)amino]carbonyl}amino)phenyl]acetyl}-N-[2-(2-pyridinyl)ethyl]glycyl}amino)benzoic acid] displayed an IC50 of less than 0.5 µM.

Where the note is “Ramos”, `Cc1ccccc1NC(=O)Nc1ccc(CC(=O)N(CC(=O)Nc2ccc(C(=O)O)cc2)Cc2cccnc2)cc1` [Example 69, 4-{[N-{[4-({[(2-methylphenyl)amino]carbonyl}amino)phenyl]acetyl}-N-(3-pyridinylmethyl)glycyl]amino}benzoic acid] yielded an IC50 of less than 0.5 µM.

The compound `COc1cccc(CCN(CC(=O)Nc2ccc(C(=O)O)cc2)C(=O)Cc2ccc3nc(Nc4ccccc4)oc3c2)c1` [Example 87, 4-({N-[(2-anilino-1,3-benzoxazol-6-yl)acetyl]-N-[2-(3-methoxyphenyl)ethyl]-glycyl}amino)benzoic acid] registered an IC50 (Ramos) of less than 0.5 µM.

`Cc1ccccc1NC(=O)Nc1ccc(CC(=O)N(CCCCN)CC(=O)Nc2ccc(C(=O)O)cc2)cc1` [Example 57, 4-[(N-(4-aminobutyl)-N-{[4-({[(2-methylphenyl)amino]carbonyl}amino)-phenyl]acetyl}glycyl)amino]benzoic acid] returned an IC50 (Ramos) of less than 0.5 µM.

`O=C(Cc1ccc2nc(Nc3ccccc3)oc2c1)N[C@@H](Cc1ccccc1)C(=O)Nc1ccc(C(=O)O)cc1` [Example 89, 4-({N-[(2-anilino-1,3-benzoxazol-6-yl)acetyl]-L-phenylalanyl}amino)benzoic acid] returned an IC50 (Ramos) of less than 0.5 µM.

`Cc1ccccc1NC(=O)Nc1ccc(CC(=O)NC(Cc2ccncc2)C(=O)Nc2ccc(C(=O)O)cc2)cc1` [Example 44, 4-{[N-{[4-(f{[(2-methylphenyl)amino]carbonyl}amino)phenyl]acetyl}-3-(4-pyridinyl)-L-alanyl]amino}benzoic acid] had an IC50 (Ramos) of less than 0.5 µM.

Regarding `CCN1CCCC1CN(CC(=O)Nc1ccc(C(=O)O)cc1)C(=O)Cc1ccc(NC(=O)Nc2ccccc2C)cc1` (centres unmarked) [Example 59, 4-[(N-[(1-ethyl-2-pyrrolidinyl)methyl]-N-{[4-({[(2-methylphenyl)amino]-carbonyl}amino)phenyl]acetyl}glycyl)amino]benzoic acid], where the note is “observed IC50 value ranges, Table 4 does not say whether Ramos-VCAM-1 or Jurkat-VCAM-1, read-out: IC50”, the IC50 was less than 0.5 µM.

In general, IC50 refers to the midpoint of a concentration-inhibition curve.
